Each compound was assayed against human activated kallikrein enzyme (Homo sapiens (Human), UniProt P03952) (assay: Plasma kallikrein inhibition assay with fluorogenic peptide substrate, 500 pM activated kallikrein format). Settings: 500 pM activated kallikrein; 300 uM Pro-Phe-Arg-7-amido-4-methylcoumarin substrate; 30 min preincubation, 10 min reaction at RT; read-out: Primary Dose Response Assay: Average EC50.
Type: biochemical
Description: Example compounds were evaluated for inhibition of the human activated kallikrein enzyme in two formats of an assay employing a fluorogenic peptide substrate. In one assay format, the concentrations of reagents were as follows: 20 mM Tris pH 7.5, 1 mM EDTA, 150 mM sodium chloride, 0.1% PEG-400, 0.1% Triton X-100, […], 300 uM Pro-Phe-Arg-7-amido-4-methylcoumarin substrate. Prior to reaction initiation with substrate, enzyme and inhibitors were preincubated for 30 min at RT. After initiation with substrate, reactions were incubated for 10 min at RT and fluorescence emission at 460 nm from 380 nm excitation measured with a microplate reader. In another assay format, the concentrations of reagents were as follows: 20 mM Tris pH 7.5, 1 mM EDTA, 150 mM sodium chloride, 0.1% PEG-400, 0.1% Triton X-100, 5 pM activated kallikrein enzyme, 300 uM Pro-Phe-Arg-7-amido-4-methylcoumarin substrate. Prior to reaction initiation with substrate, enzyme and inhibitors were preincubated for 30 min at RT. After initiation with substrate, reactions were incubated for 18 h at RT and fluorescence emission at 460 nm from 380 nm excitation measured with a microplate reader.
Table II provides the results of the assay in the format with 500 pM activated kallikrein assay.
Table III provides comparative plasma kallikrein inhibition potency in the assay format with 500 pM activated kallikrein assay (described in detail in the preceding example).

Chain of human activated kallikrein enzyme (P03952 391-638): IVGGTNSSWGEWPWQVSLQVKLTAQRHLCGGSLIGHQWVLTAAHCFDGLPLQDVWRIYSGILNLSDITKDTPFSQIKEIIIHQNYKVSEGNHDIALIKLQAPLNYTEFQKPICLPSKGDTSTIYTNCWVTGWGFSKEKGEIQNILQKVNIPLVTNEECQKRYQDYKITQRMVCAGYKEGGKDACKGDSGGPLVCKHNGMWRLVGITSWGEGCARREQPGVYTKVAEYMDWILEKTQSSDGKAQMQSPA
Chain of human activated kallikrein enzyme (P03952 20-390 partner): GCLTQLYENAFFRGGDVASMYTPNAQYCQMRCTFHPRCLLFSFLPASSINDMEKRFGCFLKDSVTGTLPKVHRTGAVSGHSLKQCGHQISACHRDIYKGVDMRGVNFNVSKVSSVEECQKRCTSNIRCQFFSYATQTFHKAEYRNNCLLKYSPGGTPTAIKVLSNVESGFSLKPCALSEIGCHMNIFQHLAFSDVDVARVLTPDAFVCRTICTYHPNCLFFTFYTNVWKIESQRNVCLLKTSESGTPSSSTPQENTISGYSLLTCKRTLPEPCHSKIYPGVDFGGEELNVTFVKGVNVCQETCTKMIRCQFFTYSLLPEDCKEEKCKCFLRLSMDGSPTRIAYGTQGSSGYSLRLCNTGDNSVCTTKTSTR

SMILES	EC50 [nM]
O=S(=O)(NCc1c(-n2cnnn2)ccc(Cl)c1F)c1cn(Cc2cn3cc(C4CC4)ccc3n2)nn1 [Example I-30, N-(3-chloro-2-fluoro-6-(1H-tetrazol-1-yl)benzyl)-1-((6-cyclopropylimidazo[1,2-a]pyridin-2-yl)methyl)-1H-1,2,3-triazole-4-sulfonamide]	100 to 2000
NCc1ccc(CNS(=O)(=O)c2cnn(Cc3cn4cc(C5CC5)ccc4n3)c2)cc1 [Example I-33, N-(4-(aminomethyl)benzyl)-1-((6-cyclopropylimidazo[1,2-a]pyridin-2-yl)methyl)-1H-pyrazole-4-sulfonamide]	2000 to 7100
N#Cc1ccc(CNS(=O)(=O)c2cnn(Cc3cn4cc(C5CC5)ccc4n3)c2)cc1 [Example I-34, N-(4-cyanobenzyl)-1-((6-cyclopropylimidazo[1,2-a]pyridin-2-yl)methyl)-1H-pyrazole-4-sulfonamide]	> 7100
O=S(=O)(NCCc1ccc(Cl)cc1)c1cnn(Cc2cn3cc(C4CC4)ccc3n2)c1 [Example I-35, N-(4-chlorophenethyl)-1-((6-cyclopropylimidazo[1,2-a]pyridin-2-yl)methyl)-1H-pyrazole-4-sulfonamide]	> 7100
O=S(=O)(NCCOc1ccccc1)c1cnn(Cc2cn3cc(C4CC4)ccc3n2)c1 [Example I-36, 1-((6-cyclopropylimidazo[1,2-a]pyridin-2-yl)methyl)-N-(2-phenoxyethyl)-1H-pyrazole-4-sulfonamide]	> 7100
CC(NS(=O)(=O)c1cnn(Cc2cn3cc(C4CC4)ccc3n2)c1)c1ccc(Cl)cc1 (stereo not drawn) [Example I-37]	> 7100
CC(NS(=O)(=O)c1cnn(Cc2cn3cc(C4CC4)ccc3n2)c1)c1cccc(Cl)c1 (stereo not drawn) [Example I-38, N-(1-(3-chlorophenyl)ethyl)-1-((6-cyclopropylimidazo[1,2-a]pyridin-2-yl)methyl)-1H-pyrazole-4-sulfonamide]	> 7100
Cc1cc(CN)cc(C)c1CNS(=O)(=O)c1cnn(Cc2cn3cc(C4CC4)ccc3n2)c1 [Example I-41, N-(4-(aminomethyl)-2,6-dimethylbenzyl)-1-((6-cyclopropylimidazo[1,2-a]pyridin-2-yl)methyl)-1H-pyrazole-4-sulfonamide]	2000 to 7100
O=S(=O)(NCc1ccc(Cl)cc1)c1cnn(Cc2cn3cc(C4CC4)ccc3n2)c1 [Example I-42, N-(4-chlorobenzyl)-1-((6-cyclopropylimidazo[1,2-a]pyridin-2-yl)methyl)-1H-pyrazole-4-sulfonamide]	> 7100
Cc1cc(C#N)cc(C)c1CNS(=O)(=O)c1cnn(Cc2cn3cc(C4CC4)ccc3n2)c1 [Example I-43, N-(4-cyano-2,6-dimethylbenzyl)-1-((6-cyclopropylimidazo[1,2-a]pyridin-2-yl)methyl)-1H-pyrazole-4-sulfonamide]	> 7100
O=S(=O)(NCCc1cccc(Cl)c1)c1cnn(Cc2cn3cc(C4CC4)ccc3n2)c1 [Example I-44, N-(3-chlorophenethyl)-1-((6-cyclopropylimidazo[1,2-a]pyridin-2-yl)methyl)-1H-pyrazole-4-sulfonamide]	> 7100
Cc1cc(N)nc(C)c1CNS(=O)(=O)c1cnn(Cc2cn3cc(C4CC4)ccc3n2)c1 [Example I-46, N-((6-amino-2,4-dimethylpyridin-3-yl)methyl)-1-((6-cyclopropylimidazo[1,2-a]pyridin-2-yl)methyl)-1H-pyrazole-4-sulfonamide]	100 to 2000
O=S(=O)(NCc1cccc(Cl)c1)c1cnn(Cc2cn3cc(C4CC4)ccc3n2)c1 [Example I-47, N-(3-chlorobenzyl)-1-((6-cyclopropylimidazo[1,2-a]pyridin-2-yl)methyl)-1H-pyrazole-4-sulfonamide]	> 7100
COc1ccc(-c2c[nH]nn2)c(CNC(=O)c2cn(Cc3cn4cc(C5CC5)ccc4n3)nn2)c1F [Example I-50]	> 7100

Second part, the compound after the results:

EC50 [nM]	SMILES
≤ 1	Cc1cc(N)nc(C)c1CNC(=O)c1cn(Cc2cn3cc(C4CC4)ccc3n2)nn1 [Example I-26, N-((6-amino-2,4-dimethylpyridin-3-yl)methyl)-1-((6-cyclopropylimidazo[1,2-a]pyridin-2-yl)methyl)-1H-1,2,3-triazole-4-carboxamide]
≤ 1	COc1ccc(-n2cnnn2)c(CNC(=O)c2cn(Cc3cn4cc(C5CC5)cc(C(O)C5COC5)c4n3)nn2)c1F (stereo not drawn) [Example I-27, 1-((6-cyclopropyl-8-(hydroxy(oxetan-3-yl)methyl)imidazo[1,2-a]pyridin-2-yl)methyl)-N-(2-fluoro-3-methoxy-6-(1H-tetrazol-1-yl)benzyl)-1H-1,2,3-triazole-4-carboxamide]
1 to 10	COc1ccc(-n2cnnn2)c(CNCc2cn(Cc3cn4cc(C5CC5)ccc4n3)nn2)c1F [Example I-29, 1-(1-((6-cyclopropylimidazo[1,2-a]pyridin-2-yl)methyl)-1H-1,2,3-triazol-4-yl)-N-(2-fluoro-3-methoxy-6-(1H-tetrazol-1-yl)benzyl)methanamine]
1 to 10	COc1ccc(-n2cnnn2)c(C(C)NC(=O)c2cn(Cc3cn4cc(C5CC5)ccc4n3)nn2)c1F (stereo not drawn) [Example I-31, 1-((6-cyclopropylimidazo[1,2-a]pyridin-2-yl)methyl)-N-(1-(2-fluoro-3-methoxy-6-(1H-tetrazol-1-yl)phenyl)ethyl)-1H-1,2,3-triazole-4-carboxamide]
1 to 10	N=C(N)c1ccc(CNS(=O)(=O)c2cnn(Cc3cn4cc(C5CC5)ccc4n3)c2)cc1 [Example I-32, 4-(((1-((6-cyclopropylimidazo[1,2-a]pyridin-2-yl)methyl)-1H-pyrazole)-4-sulfonamido)methyl)benzimidamide]
10 to 100	Cc1cc(C(=N)N)cc(C)c1CNS(=O)(=O)c1cnn(Cc2cn3cc(C4CC4)ccc3n2)c1 [Example I-39, 4-(((1-((6-cyclopropylimidazo[1,2-a]pyridin-2-yl)methyl)-1H-pyrazole)-4-sulfonamido)methyl)-3,5-dimethylbenzimidamide]
10 to 100	COc1ccc(-n2cnnn2)c(CNS(=O)(=O)c2cn(Cc3cn4cc(C5CC5)ccc4n3)nn2)c1F [Example I-40, 1-((6-cyclopropylimidazo[1,2-a]pyridin-2-yl)methyl)-N-(2-fluoro-3-methoxy-6-(1H-tetrazol-1-yl)benzyl)-1H-1,2,3-triazole-4-sulfonamide]
1 to 10	COc1ccc(-n2cnnn2)c(CNS(=O)(=O)c2cnn(Cc3cn4cc(C5CC5)ccc4n3)c2)c1F [Example I-45, 1-((6-cyclopropylimidazo[1,2-a]pyridin-2-yl)methyl)-N-(2-fluoro-3-methoxy-6-(1H-tetrazol-1-yl)benzyl)-1H-pyrazole-4-sulfonamide]
1 to 10	COc1ccc(S(=O)(=O)N2CCOCC2)c(CNC(=O)c2cn(Cc3cn4cc(C5CC5)ccc4n3)nn2)c1F [Example I-48, 1-((6-cyclopropylimidazo[1,2-a]pyridin-2-yl)methyl)-N-(2-fluoro-3-methoxy-6-(morpholinosulfonyl)benzyl)-1H-1,2,3-triazole-4-carboxamide]
10 to 100	COc1ccc(-c2c[nH]nn2)c(CNC(=O)c2cn(Cc3cn4cc(C5CC5)ccc4n3)nn2)c1F [Example I-49, 1-((6-cyclopropylimidazo[1,2-a]pyridin-2-yl)methyl)-N-(2-fluor-3-methoxy-6-(1H-1,2,3-triazol-4-yl)benzyl)-1H-1,2,3-triazole-4-carboxamide]
